Experimental data as given in patent US8729091B2, “4-phenoxy-nicotinamide or 4-phenoxy-pyrimidine-5-carboxamide compounds” (Hoffmann-La Roche Inc., priority 2010, dated 2014).

target: T1, human GPBAR1 receptor (Homo sapiens, UniProt Q8TDU6); assay: functional cAMP assay in CHO-dhfr(minus) cells expressing human GPBAR1 receptors; type: cell-based; conditions: cAMP increase (TR-FRET) in CHO-dhfr(minus) cells expressing human GPBAR1; compounds incubated 30 min at 30° C.
T1 construct: expressed in transfected cells
T1 sequence (Q8TDU6 1-330): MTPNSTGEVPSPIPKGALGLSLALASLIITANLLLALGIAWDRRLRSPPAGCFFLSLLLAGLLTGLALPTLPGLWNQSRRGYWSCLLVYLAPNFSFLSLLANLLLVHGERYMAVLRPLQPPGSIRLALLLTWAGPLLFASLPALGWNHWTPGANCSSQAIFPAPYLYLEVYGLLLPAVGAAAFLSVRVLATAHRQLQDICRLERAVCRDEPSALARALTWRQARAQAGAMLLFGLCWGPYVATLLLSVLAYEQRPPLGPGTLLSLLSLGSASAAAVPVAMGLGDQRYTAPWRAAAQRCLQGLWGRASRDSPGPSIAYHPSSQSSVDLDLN
Experimental: The final clone was verified by DNA sequence analysis. The plasmid was transfected into CHO cells deficient in dihydrofolate reductase activity (CHO-dhfr−) using Lipofectamine plus (Invitrogen). Clones were isolated in limited dilution conditions and identified by activities in the cAMP assay using lithocholic acid as agonist.
The growth medium was exchanged with Krebs Ringer Bicarbonate buffer with 1 mM IBMX and incubated at 30° C. for 30 min. Compounds were added to a final assay volume of 100 μl and incubated for 30 min at 30° C. […] The time-resolved energy transfer is measured by a TRF reader (Evotec Technologies GmbH, Hamburg Germany), equipped with a ND:YAG laser as excitation source.
EC50 values were determined using Activity Base analysis (ID Business Solution, Limited). […] Specificity for GPBAR1 was tested in non-transfected CHO cells in the same assay as above.

| Compound | EC50 [nM] |
| --- | --- |
| COc1ccccc1N(C)C(=O)c1cnccc1Oc1cc(Cl)ccc1Cl [Example 14, 4-(2,5-Dichloro-phenoxy)-N-(2-methoxy-phenyl)-N-methyl-nicotinamide] | 100 |
| Cc1nc(NC(=O)c2cc(Cl)c(Oc3ccncc3C(=O)N3CCN(C4CC4)c4ccccc43)cc2Cl)sc1C(=O)O [Example 46, 2-{2,5-Dichloro-4-[3-(4-cyclopropyl-3,4-dihydro-2H-quinoxaline-1-carbonyl)-pyridin-4-yloxy]-benzoylamino}-4-methyl-thiazole-5-carboxylic acid] | 30 |
| Cc1cc(Oc2cc(Cl)c(C(=O)Nc3nnn[nH]3)cc2Cl)c(C(=O)N2CCN(C3CC3)c3ccccc32)cn1 [Example 71, 2,5-Dichloro-4-[5-(4-cyclopropyl-3,4-dihydro-2H-quinoxaline-1-carbonyl)-2-methyl-pyridin-4-yloxy]-N-(1H-tetrazol-5-yl)-benzamide] | 100 |
| CN(C(=O)c1cnccc1Oc1cc(Cl)ccc1Cl)c1cc(C(F)(F)F)cc(C(F)(F)F)c1 [Example 18, N-(3,5-Bis-trifluoromethyl-phenyl)-4-(2,5-dichloro-phenoxy)-N-methyl-nicotinamide] | 1400 |
| O=C(c1cncnc1Oc1cc(Cl)ccc1Cl)N1CCCc2cc(F)ccc21 [Example 77, [4-(2,5-Dichloro-phenoxy)-pyrimidin-5-yl]-(6-fluoro-3,4-dihydro-2H-quinolin-1-yl)-methanone] | 400 |
| COc1ncccc1N(C)C(=O)c1cnccc1Oc1cc(Cl)ccc1Cl [Example 15, 4-(2,5-Dichloro-phenoxy)-N-(2-methoxy-pyridin-3-yl)-N-methyl-nicotinamide] | 100 |
| O=C(NCCS(=O)(=O)O)c1cc(Cl)c(Oc2ccncc2C(=O)N2CCN(C3CC3)c3ccccc32)cc1Cl [Example 35, 2-{2,5-Dichloro-4-[3-(4-cyclopropyl-3,4-dihydro-2H-quinoxaline-1-carbonyl)-pyridin-4-yloxy]-benzoylamino}-ethanesulfonic acid] | 100 |
| O=C(c1cnccc1Oc1cc(Cl)c(O)cc1Cl)N1CCN(C2CC2)c2ccccc21 [Example 57, (4-Cyclopropyl-3,4-dihydro-2H-quinoxalin-1-yl)-[4-(2,5-dichloro-4-hydroxy-phenoxy)-pyridin-3-yl]-methanone] | 10 |
| O=C(c1cnc(Cl)cc1Oc1cc(Cl)ccc1Cl)N1CCCc2ccccc21 [Example 74, [6-Chloro-4-(2,5-dichloro-phenoxy)-pyridin-3-yl]-(3,4-dihydro-2H-quinolin-1-yl)-methanone] | 22 |
| COC(=O)CCC(CCC(=O)OC)NC(=O)c1cc(Cl)c(Oc2ccncc2C(=O)N2CCN(C3CC3)c3ccccc32)cc1Cl [Example 54, 4-{2,5-Dichloro-4-[3-(4-cyclopropyl-3,4-dihydro-2H-quinoxaline-1-carbonyl)-pyridin-4-yloxy]-benzoylamino}-heptanedioic acid dimethyl ester] | 300 |
| COC(=O)c1cc(Cl)c(Oc2ccncc2C(=O)N2CCN(C3CC3)c3ccccc32)cc1C(=O)OC [Example 28, 4-Chloro-5-[3-(4-cyclopropyl-3,4-dihydro-2H-quinoxaline-1-carbonyl)-pyridin-4-yloxy]-phthalic acid dimethyl ester] | 4 |
| O=C(c1cnccc1Oc1cc(Cl)c(CO)cc1Cl)N1CCN(C2CC2)c2ccccc21 [Example 55, (4-Cyclopropyl-3,4-dihydro-2H-quinoxalin-1-yl)-[4-(2,5-dichloro-4-hydroxymethyl-phenoxy)-pyridin-3-yl]-methanone] | 3 |
| O=C(c1cc(Cl)c(Oc2ccncc2C(=O)N2CCN(C3CC3)c3ccccc32)cc1Cl)N(CCO)CCO [Example 50, 2,5-Dichloro-4-[3-(4-cyclopropyl-3,4-dihydro-2H-quinoxaline-1-carbonyl)-pyridin-4-yloxy]-N,N-bis-(2-hydroxy-ethyl)-benzamide] | 1100 |
| O=C(O)COc1cc(Cl)c(Oc2ccncc2C(=O)N2CCN(C3CC3)c3ccccc32)cc1Cl [Example 59, {2,5-Dichloro-4-[3-(4-cyclopropyl-3,4-dihydro-2H-quinoxaline-1-carbonyl)-pyridin-4-yloxy]-phenoxy}-acetic acid] | 500 |
| CNc1cc(F)c(F)cc1N(C)C(=O)c1cnccc1Oc1cc(Cl)ccc1Cl [Example 21, 4-(2,5-Dichloro-phenoxy)-N-(4,5-difluoro-2-methylamino-phenyl)-N-methyl-nicotinamide] | 400 |
| Cc1cc(Oc2cc(Cl)c(C(=O)NCC(=O)O)cc2Cl)c(C(=O)N2CCN(C3CC3)c3ccccc32)cn1 [Example 70, {2,5-Dichloro-4-[5-(4-cyclopropyl-3,4-dihydro-2H-quinoxaline-1-carbonyl)-2-methyl-pyridin-4-yloxy]-benzoylamino}-acetic acid] | 400 |
| O=C(O)c1ccc(NC(=O)c2cc(Cl)c(Oc3ccncc3C(=O)N3CCN(C4CC4)c4ccccc43)cc2Cl)cc1 [Example 44, 4-{2,5-Dichloro-4-[3-(4-cyclopropyl-3,4-dihydro-2H-quinoxaline-1-carbonyl)-pyridin-4-yloxy]-benzoylamino}-benzoic acid] | 20 |
| O=C(c1cnccc1Oc1cc(Cl)ccc1Cl)N1CCN(C2CC2)c2cc(Cl)c(F)cc21 [Example 9, (6-Chloro-4-cyclopropyl-7-fluoro-3,4-dihydro-2H-quinoxalin-1-yl)-[4-(2,5-dichloro-phenoxy)-pyridin-3-yl]-methanone] | 50 |
| CN(C(=O)c1cnccc1Oc1cc(Cl)ccc1Cl)c1cc(F)c(Cl)cc1N(C)C1CC1 [Example 25, N-[4-Chloro-2-(cyclopropyl-methyl-amino)-5-fluoro-phenyl]-4-(2,5-dichloro-phenoxy)-N-methyl-nicotinamide] | 1700 |
| CN(C(=O)c1cnccc1Oc1cc(Cl)ccc1Cl)c1ccccc1N1CCCCC1 [Example 17, 4-(2,5-Dichloro-phenoxy)-N-methyl-N-(2-piperidin-1-yl-phenyl)-nicotinamide] | 1900 |
| COC(=O)CNC(=O)c1cc(Cl)c(Oc2ccncc2C(=O)N2CCN(C3CC3)c3ccccc32)cc1Cl [Example 29, {2,5-Dichloro-4-[3-(4-cyclopropyl-3,4-dihydro-2H-quinoxaline-1-carbonyl)-pyridin-4-yloxy]-benzoylamino}-acetic acid methyl ester] | 100 |
| Cc1ccccc1N(C)C(=O)c1cnccc1Oc1cc(Cl)ccc1Cl [Example 13, 4-(2,5-Dichloro-phenoxy)-N-methyl-N-o-tolyl-nicotinamide] | 200 |
| CCOC(=O)c1nnc(NC(=O)c2cc(Cl)c(Oc3ccncc3C(=O)N3CCN(C4CC4)c4ccccc43)cc2Cl)s1 [Example 47, 5-{2,5-Dichloro-4-[3-(4-cyclopropyl-3,4-dihydro-2H-quinoxaline-1-carbonyl)-pyridin-4-yloxy]-benzoylamino}-[1,3,4]thiadiazole-2-carboxylic acid ethyl ester] | 100 |
| O=C(NCCO)c1cc(Cl)c(Oc2ccncc2C(=O)N2CCN(C3CC3)c3ccccc32)cc1Cl [Example 49, 2,5-Dichloro-4-[3-(4-cyclopropyl-3,4-dihydro-2H-quinoxaline-1-carbonyl)-pyridin-4-yloxy]-N-(2-hydroxy-ethyl)-benzamide] | 40 |
| CCOC(=O)CCNC(=O)c1cc(Cl)c(Oc2cc(C)ncc2C(=O)N2CCN(C3CC3)c3ccccc32)cc1Cl [Example 67, 3-{2,5-Dichloro-4-[5-(4-cyclopropyl-3,4-dihydro-2H-quinoxaline-1-carbonyl)-2-methyl-pyridin-4-yloxy]-benzoylamino}-propionic acid ethyl ester] | 20 |
| CCOC(=O)CCNC(=O)c1cc(Cl)c(Oc2ccncc2C(=O)N2CCN(C3CC3)c3ccccc32)cc1Cl [Example 33, 3-{2,5-Dichloro-4-[3-(4-cyclopropyl-3,4-dihydro-2H-quinoxaline-1-carbonyl)-pyridin-4-yloxy]-benzoylamino}-propionic acid ethyl ester] | 20 |
| Cc1cc(Oc2cc(Cl)ccc2Cl)c(C(=O)N2CCN(C3CC3)c3ccccc32)cn1 [Example 63, (4-Cyclopropyl-3,4-dihydro-2H-quinoxalin-1-yl)-[4-(2,5-dichloro-phenoxy)-6-methyl-pyridin-3-yl]-methanone] | 1 |
| CN(CC(=O)O)C(=O)c1cc(Cl)c(Oc2ccncc2C(=O)N2CCN(C3CC3)c3ccccc32)cc1Cl [Example 32, ({2,5-Dichloro-4-[3-(4-cyclopropyl-3,4-dihydro-2H-quinoxaline-1-carbonyl)-pyridin-4-yloxy]-benzoyl}-methyl-amino)-acetic acid] | 900 |
| COC(=O)c1cc(Cl)c(Oc2cc(C)ncc2C(=O)N2CCN(C3CC3)c3ccccc32)cc1Cl [Example 65, 2,5-Dichloro-4-[5-(4-cyclopropyl-3,4-dihydro-2H-quinoxaline-1-carbonyl)-2-methyl-pyridin-4-yloxy]-benzoic acid methyl ester] | 20 |
| NC(=O)c1cc(Cl)c(Oc2ccncc2C(=O)N2CCN(C3CC3)c3ccccc32)cc1Cl [Example 52, 2,5-Dichloro-4-[3-(4-cyclopropyl-3,4-dihydro-2H-quinoxaline-1-carbonyl)-pyridin-4-yloxy]-benzamide] | 10 |
